Entries after “also recorded” stand apart in the source; their conditions may differ.
Assays:
[1] = biological target: T1, TRPA1 channel (Mus musculus, UniProt Q8BLA8); assay: Acrolein-induced CGRP release in mouse trachea tissue; format: cell-based; parameters: CGRP release can be detected in vitro using whole trachea tissue; from tissue; host or cells: mouse trachea; conditions: FIG. 7; for CGRP release versus acrolein alone: trachea samples exposed to acrolein plus test substance
Method: (§1) CGRP is a sensory biomarker of neurons that mediate information to the brain. CGRP release can be detected in vitro using whole trachea tissue by exposing the tissue to a stimulatory compound. A standard ELISA assay may then be used to measure the release of CGRP. The active ingredient was tested using a mouse trachea model.
(FIG. 7). […] (FIG. 7). […] (FIG. 7).

[2] = biological target: T1, TRPA1 channel; assay: TRPA1 irritant-stimulated iCGRP release in tracheal tissue samples; format: cell-based; parameters: formalin-stimulated GCRP release in both skin and tracheal tissue samples; from tissue; host or cells: skin and tracheal tissue samples; conditions: tracheal tissue samples with TRPA1 channel irritants; FIG. 9
Method: (§2) Similar dosing experiments were performed using formalin, a TRPA1 channel […]. […] (FIG. 8). […] Thus, in some embodiments, active ingredients may be used that inhibit both the nicotinic acetylcholine receptors and the TRPA1 channel. […] (FIG. 9). […] (FIG. 9).

[3] = test system: nicotinic acetylcholine receptors; assay: Nicotine-induced CGRP release in buccal mucosa tissue samples; format: cell-based, mouse
Text: Active ingredients appropriate for use in embodiments described herein may also include isoborneol.

[4] = test system: TRPV1 channel; assay: Heat (45° C.)-induced CGRP release in tracheal samples; format: cell-based, mouse; conditions: FIG. 6; for Heat-induced CGRP release with test substance: 45° C.
[5] = test system: nAChR receptor; assay: Epibatidine-induced CGRP release in tracheal tissue; format: cell-based, mouse
[6] = test system: acetylcholine receptors; conditions: adrenal gland cells; cited from earlier work
[7] = test system: tracheal tissue samples; assay: Total particulate matter (TPM)-stimulated CGRP release in tracheal tissue samples; format: cell-based; conditions: FIG. 10
Text: To assess the potential of camphor on GCRP release stimulated by cigarette smoking, tracheal tissue samples were exposed to total particulate matter (TPM) containing the same amount of nicotine as in the nicotine alone experiment. […] (FIG. 10). […] (FIG. 10). The results observed in the TPM experiments are similar to those seen in experiments in which nicotine is used alone. (FIG. 10).

[8] = biological target: T1, TRPA1 channel; assay: Formalin-stimulated CGRP release in skin and tracheal tissue samples; format: cell-based; parameters: formalin-stimulated GCRP release in both skin and tracheal tissue samples; from tissue; host or cells: skin and tracheal tissue samples; conditions: FIG. 8
Method: as §2

[9] = test system: nerve fibers; conditions: isolated mouse trachea model; cited from earlier work
[10] = test system: mouse nodose/jugular Ggl neurons; assay: Calcium imaging (340 and 380 nm) of nicotine-stimulated neurons; format: cell-based; conditions: FIG. 3b
Method: (§3) (FIG. 3a). […] Calcium-imaging experiments were performed on mouse nodose/jugular Ggl neurons with images captures at 340 and 380 nm over time. (FIG. 3b). […] (FIG. 3b). […] (FIG. 3c). […] (FIG. 3c). […] (FIG. 3d).

[11] = test system: nAChR receptor; assay: Nicotine-induced CGRP release in mouse trachea tissue (ELISA); format: cell-based; conditions: for CGRP release versus nicotine alone: trachea samples exposed to nicotine plus test substance, FIG. 1b; for Maximal nicotinic response (CGRP release, time course): trachea tissue pretreated with nicotine, then enantiomer, FIG. 2
Method: as §1
In order to determine whether a specific enantiomer of the active ingredient show greater efficacy, time course experiments were conducted in which trachea tissue samples were pretreated with nicotine and exposed to either the (−) or (+) enantiomer of camphor.
as §3

[12] = tracheal samples of TRPV1 knockout mice
[13] = tracheal samples of normal mice

T1 sequence (Q8BLA8 whole entry): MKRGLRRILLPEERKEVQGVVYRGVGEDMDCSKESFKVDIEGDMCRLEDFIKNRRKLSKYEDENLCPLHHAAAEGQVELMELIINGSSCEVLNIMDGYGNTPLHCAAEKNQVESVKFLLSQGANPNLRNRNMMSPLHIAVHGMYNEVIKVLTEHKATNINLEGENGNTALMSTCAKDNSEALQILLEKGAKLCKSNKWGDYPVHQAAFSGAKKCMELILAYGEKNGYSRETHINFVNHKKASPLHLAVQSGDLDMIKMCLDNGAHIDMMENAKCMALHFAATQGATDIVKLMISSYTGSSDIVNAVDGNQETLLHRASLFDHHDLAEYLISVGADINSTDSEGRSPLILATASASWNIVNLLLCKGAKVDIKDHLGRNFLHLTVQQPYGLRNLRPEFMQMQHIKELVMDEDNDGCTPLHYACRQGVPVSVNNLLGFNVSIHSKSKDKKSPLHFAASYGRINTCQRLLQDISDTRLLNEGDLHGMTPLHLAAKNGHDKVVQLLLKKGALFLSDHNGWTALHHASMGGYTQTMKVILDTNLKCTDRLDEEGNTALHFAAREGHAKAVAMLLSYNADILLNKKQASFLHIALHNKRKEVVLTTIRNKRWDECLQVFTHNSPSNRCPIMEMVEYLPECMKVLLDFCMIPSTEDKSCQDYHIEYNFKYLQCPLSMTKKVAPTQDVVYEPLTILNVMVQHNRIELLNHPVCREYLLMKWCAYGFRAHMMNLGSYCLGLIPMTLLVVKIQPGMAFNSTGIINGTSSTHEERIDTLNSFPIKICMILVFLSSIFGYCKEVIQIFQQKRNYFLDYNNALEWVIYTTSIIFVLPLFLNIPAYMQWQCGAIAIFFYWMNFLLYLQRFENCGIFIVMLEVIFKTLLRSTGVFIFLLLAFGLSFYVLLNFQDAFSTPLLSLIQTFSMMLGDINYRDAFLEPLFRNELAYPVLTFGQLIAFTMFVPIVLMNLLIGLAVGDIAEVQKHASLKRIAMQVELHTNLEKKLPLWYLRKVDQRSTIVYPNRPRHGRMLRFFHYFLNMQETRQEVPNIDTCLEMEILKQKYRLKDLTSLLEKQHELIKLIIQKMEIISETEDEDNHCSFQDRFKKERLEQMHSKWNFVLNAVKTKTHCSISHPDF

In the case of `C=CC=O` [acrolein, reference compound], the “CGRP release induced by the stimulus alone” value ([1]; trachea tissue, various concentrations, FIG. 1c) is reported as “cause CGRP release at various concentrations; also recorded: released increased amounts of CGRP when exposed to higher concentrations”.

In the case of `CC12CCC(CC1=O)C2(C)C` (stereo not shown) [camphor], the “TRPA1 channel mediated release of iCGRP with camphor” value [2] is reported as “reduce the TRPA1 channel mediated release of iCGRP”, the “CGRP release after nicotine followed by test substance, versus nicotine alone” value ([3]; buccal mucosa time course, male mice showed stronger inhibition, FIGS. 5a and 5b) is reported as “CGRP release was significantly lower” and the “CGRP release with nicotine and camphor” value ([3]; buccal mucosa, TRPA1/TRPV1 double knockouts, FIG. 4) is reported as “did not show a significant change in CGRP release”. The “Heat-induced CGRP release with test substance” value (“Heat-induced CGRP release” below) [4, 12] was “released comparable levels of CGRP relative to normal samples”, the “Heat-induced CGRP release” value [4, 13] was “released comparable levels of CGRP relative to normal samples” and the “Epibatidine-induced CGRP release with camphor in absence of TRPA1” value ([5]; tracheal samples from TRPA1 knockout mice, FIG. 3d) was “effectively inhibited CGRP release; also recorded: marked reduction in CGRP release”. For the same compound, the “Epibatidine-induced CGRP release with inhibitor” value ([5]; tracheal tissue, FIG. 3c) was “release of CGRP could be inhibited”, the “CGRP release versus acrolein alone” value ([1]; FIG. 1c) was “decrease in CGRP release; also recorded: marked reduction in CGRP release” and the “CGRP release in camphor treated samples as acrolein concentration was increased” value ([1]; versus acrolein only at the same concentration) was “significantly lower levels of CGRP”. For the same compound, the Nor-epinephrine release [6] was “inhibit nor-epinephrine release from adrenal gland cells”, the “TPM-stimulated CGRP release with camphor” value [7] was “largely blocked” and the “Effect of camphor at high formalin concentrations” value ([8]; both skin and tracheal tissue samples) was “could be overcome at high formalin concentrations”. For the same compound, the “Formalin-stimulated CGRP release with camphor” value ([8]; skin tissue samples) was “decrease in formalin-stimulated GCRP release”, the “Formalin-stimulated CGRP release with camphor” value ([8]; tracheal tissue samples) was “decrease in formalin-stimulated GCRP release” and the “Activation of nerve fibers induced by nicotine” value [9] was “effectively inhibit activation of nerve fibers”. For the same compound, the “Nicotine-stimulated calcium influx in combination with test substance” value [10] was “not when given in combination with camphor”, the “Dose dependence of anti-nicotinic effect (CGRP release)” value ([11]; mouse trachea, nicotine plus various concentrations of camphor, FIG. 3a) was “CGRP release was decreased as the concentration of camphor was increased” and the “CGRP release versus nicotine alone” value [11] was “released less CGRP compared to samples exposed to nicotine alone”.

With `CN1CCCC1c1cccnc1` (stereo not shown) [nicotine] the “CGRP release induced by nicotine alone” value ([3]; buccal mucosa, TRPA1/TRPV1 double knockout mice, FIG. 4) was “did not respond to nicotine exposure by releasing similar amounts of CGRP relative to normal mice”, the “CGRP release induced by nicotine alone” value ([3]; buccal mucosa, normal C57Bl/6 mice, FIG. 4, FIGS. 5a and 5b) was “released increased amounts of CGRP; also recorded: increased release of CGRP” and the “Calcium influx, stimulus alone” value [10] was “stimulated calcium influx in Ggl neurons”. The “CGRP release induced by the stimulus alone” value ([11]; mouse trachea, FIG. 1a) was “induce the release of calcitonin gene-related peptide (CGRP)”.

With `NCCOB(c1ccccc1)c1ccccc1` [2-APB] the “Heat-induced CGRP release” value [4, 13] was “increase CGRP release”.

With `CC1(C)[C@H]2CC[C@]1(C)C(=O)C2` (single isomer, unassigned) [(−) enantiomer of camphor] the “Maximal nicotinic response (CGRP release, time course)” value [11] was “effective at abolishing the maximal nicotinic response”.

For `CCO` [ethanol], the “CGRP release in ethanol-treated TRPV1 knockout samples relative to ethanol-treated normal samples” value ([4]; heat treated tracheal samples) was 5 fold less, the “Heat-induced CGRP release” value [4, 12] was “increase in CGRP release relative to untreated TRPV1 knockouts” and the “Heat-induced CGRP release” value [4, 13] was “increase CGRP release”.

In the case of `CC(C)(C)c1ccc(NC(=O)N2CCN(c3ncccc3Cl)CC2)cc1` [BCTC, reference compound], the “CGRP release versus nicotine alone” value [11] is reported as “did not show any significant reduction in CGRP release”.

For `CNC1(C)C2CCC(C2)C1(C)C` (stereo not shown) [Mecamylanine, reference compound], the “Epibatidine-induced CGRP release with inhibitor” value ([5]; tracheal tissue, FIG. 3c) was “release of CGRP could be inhibited”.

With `CC12CCC(CC1=O)C2(C)C` (single isomer, unassigned; (+)) [(+) enantiomer of camphor] the “Maximal nicotinic response (CGRP release, time course)” value [11] was “effective at abolishing the maximal nicotinic response”.

With `Clc1ccc(C2CC3CCC2N3)cn1` (stereo not shown) [epibatidine, reference compound] the “CGRP release induced by the stimulus alone” value ([5]; tracheal tissue, FIG. 3c) was “increased release of CGRP”.

For `CC(C)c1ccc(NC(=O)Cn2cnc3c2c(=O)n(C)c(=O)n3C)cc1` [HC030031, reference compound], the “CGRP release versus acrolein alone” value ([1]; FIG. 1c) was “CGRP release was also reduced” and the “CGRP release versus nicotine alone” value [11] was “did not show any significant reduction in CGRP release”.
